The structures appear in SMILES notation.

Sequence of human SGLT2 (P31639 whole entry): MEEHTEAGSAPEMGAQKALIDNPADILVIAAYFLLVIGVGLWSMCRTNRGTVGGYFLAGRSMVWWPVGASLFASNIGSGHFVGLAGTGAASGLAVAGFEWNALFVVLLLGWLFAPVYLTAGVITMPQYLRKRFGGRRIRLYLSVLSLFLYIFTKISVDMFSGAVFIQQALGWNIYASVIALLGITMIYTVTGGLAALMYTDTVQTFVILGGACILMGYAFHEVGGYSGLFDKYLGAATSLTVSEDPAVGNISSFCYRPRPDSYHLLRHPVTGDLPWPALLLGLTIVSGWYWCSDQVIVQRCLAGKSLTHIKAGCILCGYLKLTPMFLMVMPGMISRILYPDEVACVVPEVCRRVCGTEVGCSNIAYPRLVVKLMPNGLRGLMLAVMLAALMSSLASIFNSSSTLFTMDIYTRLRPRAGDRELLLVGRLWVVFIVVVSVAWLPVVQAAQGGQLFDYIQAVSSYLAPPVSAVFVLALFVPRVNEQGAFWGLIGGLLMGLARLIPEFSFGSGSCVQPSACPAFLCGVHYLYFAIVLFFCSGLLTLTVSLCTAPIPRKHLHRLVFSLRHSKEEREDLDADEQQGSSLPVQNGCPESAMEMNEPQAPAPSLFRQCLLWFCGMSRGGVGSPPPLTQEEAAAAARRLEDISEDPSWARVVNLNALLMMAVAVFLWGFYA

The assay addresses human SGLT2 (Homo sapiens (Human), UniProt P31639). Put plainly: hSGLT2 inhibitory activity, sodium-dependent 14C-AMG glucose transport assay in CHO cells expressing hSGLT2. It is filed as cell-based. The settings on record: 14C-AMG uptake, CHO cells expressing hSGLT2, 37° C. for 2 h. From the text: Human SGLT2 (hSGLT2) gene was amplified by PCR from cDNA-Human Adult Normal Tissue Kidney (Invitrogen, Carlsbad, Calif.). The hSGLT2 sequence was cloned into pcDNA3.1(+) for mammalian expression and were stably transfected into Chinese hamster ovary (CHO) cells. SGLT2-expressing clones were selected based on resistance to G418 antibiotic (Geneticin®, Invitrogen, Carlsbad, Calif.) and activity in the ^14C-α-methyl-D-glucopyranoside (^14C-AMG) uptake assay.
For sodium-dependent glucose transport assay, cells expressing hSGLT2 were seeded into a 96-well culture plate at a density of 5×10^4 cells/well in RPMI medium 1640 containing 10% fetal bovine serum. The cells were used 1 day after plating. They were incubated in pretreatment buffer (10 mM HEPES, 5 mM Tris, 140 mM choline chloride, 2 mM KCl, 1 mM CaCl2, and 1 mM MgCl2, pH 7.4) at 37° C. for 10 min. They were then incubated in uptake buffer (10 mM HEPES, 5 mM Tris, 140 mM NaCl, 2 mM KCl, 1 mM CaCl2, 1 mM MgCl2, and 1 mM ^14C-nonlabeled AMG pH 7.4) containing ^14C-labeled (8 uM) and inhibitor or dimethyl sulfoxide (DMSO) vehicle at 37° C. for 2 h. Cells were washed twice with washing buffer (pretreatment buffer containing 10 mM AMG at room temperature) and then the radioactivity was measured using a liquid scintillation counter.
`Cc1ccc(-c2nnc(Cc3cc([C@@H]4O[C@H](CO)[C@@H](O)[C@H](O)[C@H]4O)ccc3Cl)s2)cn1` [Example 16, (2S,3R,4R,5S,6R)-2-(4-Chloro-3-((5-(6-methylpyridin-3-yl)-1,3,4-thiadiazol-2-yl)methyl)phenyl)-6-(hydroxymethyl)-tetrahydro-2H-pyran-3,4,5-triol]: it took 97.4 nM to reach half-maximal inhibition (IC50).

In turn, `OC[C@H]1O[C@@H](c2ccc(Cl)c(Cc3ccc(-c4ccoc4)nn3)c2)[C@H](O)[C@@H](O)[C@@H]1O` [Example 63, (2S,3R,4R,5S,6R)-2-(4-Chloro-3-((6-(furan-3-yl)pyridazin-3-yl)methyl)phenyl)-6-(hydroxymethyl)-tetrahydro-2H-pyran-3,4,5-triol] gave an IC50 of 61.3 nM.

The molecule `Cc1ccc(Cc2cc([C@@H]3O[C@H](CO)[C@@H](O)[C@H](O)[C@H]3O)ccc2Cl)nn1` [Example 73, (2S,3R,4R,5S,6R)-2-(4-Chloro-3-((6-methylpyridazin-3-yl)methyl)phenyl)-6-(hydroxymethyl)-tetrahydro-2H-pyran-3,4,5-triol] came in with an IC50 of 293 nM.

In turn, `OC[C@H]1O[C@@H](c2ccc(Cl)c(Cc3nccnn3)c2)[C@H](O)[C@@H](O)[C@@H]1O` [Example 89, (2S,3R,4R,5S,6R)-2-(3-((1,2,4-triazin-3-yl)methyl)-4-chlorophenyl)-6-(hydroxymethyl)tetrahydro-2H-pyran-3,4,5-triol] came in with an IC50 of 261 nM.

In the case of `Cc1cccc(-c2nnc(Cc3cc([C@@H]4O[C@H](CO)[C@@H](O)[C@H](O)[C@H]4O)ccc3Cl)s2)n1` [Example 44, (2S,3R,4R,5S,6R)-2-(4-Chloro-3-((5-(6-methylpyridin-2-yl)-1,3,4-thiadiazol-2-yl)methyl)phenyl)-6-(hydroxymethyl)-tetrahydro-2H-pyran-3,4,5-triol], it took 638 nM to reach half-maximal inhibition (IC50).

Take `OC[C@H]1O[C@@H](c2ccc(Cl)c(Cc3ccc(-c4ccc5c(c4)OCO5)nn3)c2)[C@H](O)[C@@H](O)[C@@H]1O` [Example 67, (2S,3R,4R,5S,6R)-2-(3-((6-(Benzo[d][1,3]dioxol-5-yl)pyridazin-3-yl)methyl)-4-chlorophenyl)-6-(hydroxymethyl)-tetrahydro-2H-pyran-3,4,5-triol]: the IC50 turned out to be 82.7 nM.

As for `CCCCCc1nnc(Cc2cc([C@@H]3O[C@H](CO)[C@@H](O)[C@H](O)[C@H]3O)ccc2Cl)s1` [Example 33, (2S,3R,4R,5S,6R)-2-(4-Chloro-3-((5-pentyl-1,3,4-thiadiazol-2-yl)methyl)phenyl)-6-(hydroxymethyl)-tetrahydro-2H-pyran-3,4,5-triol], the IC50 amounted to 353 nM.

`OC[C@H]1O[C@@H](c2cc(Cc3nnc(-c4ccco4)s3)c3ccccc3c2)[C@H](O)[C@@H](O)[C@@H]1O` [Example 95, (2S,3R,4R,5S,6R)-2-(4-((5-(Furan-2-yl)-1,3,4-thiadiazol-2-yl)methyl)naphthalen-2-yl)-6-(hydroxymethyl)-tetrahydro-2H-pyran-3,4,5-triol] had an IC50 of 323 nM.

Take `CCCc1ccc(Cc2cc([C@@H]3O[C@H](CO)[C@@H](O)[C@H](O)[C@H]3O)ccc2Cl)nn1` [Example 74, (2S,3R,4R,5S,6R)-2-(4-Chloro-3-((6-propylpyridazin-3-yl)methyl)phenyl)-6-(hydroxymethyl)-tetrahydro-2H-pyran-3,4,5-triol]: 237 nM corresponded to half-maximal inhibition (IC50).

Turning to `Cc1ccc2nc(Cc3cc([C@@H]4O[C@H](CO)[C@@H](O)[C@H](O)[C@H]4O)ccc3Cl)nnc2c1` [Example 87, (2S,3R,4R,5S,6R)-2-(4-Chloro-3-((7-methylbenzo[e][1,2,4]triazin-3-yl)methyl)phenyl)-6-(hydroxymethyl)tetrahydro-2H-pyran-3,4,5-triol], it took 532 nM to reach half-maximal inhibition (IC50).

Turning to `OC[C@H]1O[C@@H](c2ccc(Cl)c(Cc3nnc4ccccc4n3)c2)[C@H](O)[C@@H](O)[C@@H]1O` [Example 88, (2S,3R,4R,5S,6R)-2-(3-(Benzo[e][1,2,4]triazin-3-ylmethyl)-4-chlorophenyl)-6-(hydroxymethyl)tetrahydro-2H-pyran-3,4,5-triol], the IC50 was found to be 491 nM.

On to `OC[C@H]1O[C@@H](c2ccc(Cl)c(Cc3nnc(-c4cc5ccccc5cn4)s3)c2)[C@H](O)[C@@H](O)[C@@H]1O` [Example 18, (2S,3R,4R,5S,6R)-2-(4-Chloro-3-((5-(isoquinolin-3-yl)-1,3,4-thiadiazol-2-yl)methyl)phenyl)-6-(hydroxymethyl)-tetrahydro-2H-pyran-3,4,5-triol], for which the IC50 was 81.6 nM.

As to `OC[C@H]1OC(c2ccc(Cl)c(Cc3nnc(/C=C/c4ccccc4)s3)c2)[C@H](O)[C@@H](O)[C@@H]1O` (stereo partly drawn) [Example 27, (3R,4R,5S,6R,E)-2-(4-Chloro-3-((5-styryl-1,3,4-thiadiazol-2-yl)methyl)phenyl)-6-(hydroxymethyl)-tetrahydro-2H-pyran-3,4,5-triol], inhibition was half-maximal at 730 nM (IC50).

`OC[C@H]1O[C@@H](c2ccc(Cl)c(Cc3nnc(-c4ccnnc4)s3)c2)[C@H](O)[C@@H](O)[C@@H]1O` [Example 43, (2S,3R,4R,5S,6R)-2-(4-Chloro-3-((5-(pyridazin-4-yl)-1,3,4-thiadiazol-2-yl)methyl)phenyl)-6-(hydroxymethyl)-tetrahydro-2H-pyran-3,4,5-triol]: half-maximal inhibition (IC50) required 190 nM.

The molecule `OC[C@H]1O[C@@H](c2ccc(Cl)c(Cc3nnc(C(F)(F)F)s3)c2)[C@H](O)[C@@H](O)[C@@H]1O` [Example 38, (2S,3R,4R,5S,6R)-2-(4-Chloro-3-((5-(trifluoromethyl)-1,3,4-thiadiazol-2-yl)methyl)phenyl)-6-(hydroxymethyl)tetrahydro-2H-pyran-3,4,5-triol] returned a concentration for half-maximal inhibition (IC50) of 155 nM.

In turn, `OC[C@H]1O[C@@H](c2ccc(Cl)c(Cc3nnc(-c4cscn4)s3)c2)[C@H](O)[C@@H](O)[C@@H]1O` [Example 13, (2S,3R,4R,5S,6R)-2-(4-Chloro-3-((5-(thiazol-4-yl)-1,3,4-thiadiazol-2-yl)methyl)phenyl)-6-(hydroxymethyl)tetrahydro-2H-pyran-3,4,5-triol] yielded an IC50 of 21.8 nM.

In turn, `Cc1cc(-c2nnc(Cc3cc([C@@H]4O[C@H](CO)[C@@H](O)[C@H](O)[C@H]4O)ccc3Cl)s2)no1` [Example 12, (2S,3R,4R,5S,6R)-2-(4-Chloro-3-((5-(5-methylisoxazol-3-yl)-1,3,4-thiadiazol-2-yl)methyl)phenyl)-6-(hydroxymethyl)tetrahydro-2H-pyran-3,4,5-triol] displayed an IC50 of 257 nM.

In turn, `COc1nnc(Cc2cc([C@@H]3O[C@H](CO)[C@@H](O)[C@H](O)[C@H]3O)ccc2Cl)s1` [Example 41, (2S,3R,4R,5S,6R)-2-(4-Chloro-3-((5-methoxy-1,3,4-thiadiazol-2-yl)methyl)phenyl)-6-(hydroxymethyl)-tetrahydro-2H-pyran-3,4,5-triol] came in with an IC50 of 146 nM.

In turn, `OC[C@H]1O[C@@H](c2ccc(Cl)c(Cc3nnc(-c4ccc(Cl)s4)s3)c2)[C@H](O)[C@@H](O)[C@@H]1O` [Example 8, (2S,3R,4R,5S,6R)-2-(4-Chloro-3-((5-(5-chlorothiophen-2-yl)-1,3,4-thiadiazol-2-yl)methyl)phenyl)-6-(hydroxymethyl)-tetrahydro-2H-pyran-3,4,5-triol] gave an IC50 of 18.2 nM.

For the molecule `OC[C@H]1O[C@@H](c2ccc(Cl)c(Cc3nnc(C4CCCC4)s3)c2)[C@H](O)[C@@H](O)[C@@H]1O` [Example 19, (2S,3R,4R,5S,6R)-2-(4-Chloro-3-((5-cyclopentyl-1,3,4-thiadiazol-2-yl)methyl)phenyl)-6-(hydroxymethyl)tetrahydro-2H-pyran-3,4,5-triol], the IC50 came to 445 nM.

In turn, `CCCCCOc1ccc(Cc2cc([C@@H]3O[C@H](CO)[C@@H](O)[C@H](O)[C@H]3O)ccc2Cl)nn1` [Example 54, (2S,3R,4R,5S,6R)-2-(4-Chloro-3-((6-(pentyloxy)pyridazin-3-yl)methyl)phenyl)-6-(hydroxymethyl)-tetrahydro-2H-pyran-3,4,5-triol] came in with an IC50 of 17 nM.

Take `CCSc1ccc(Cc2cc([C@@H]3O[C@H](CO)[C@@H](O)[C@H](O)[C@H]3O)ccc2Cl)nn1` [Example 80, (2S,3R,4R,5S,6R)-2-(4-Chloro-3-((6-(ethylthio)pyridazin-3-yl)methyl)phenyl)-6-(hydroxymethyl)-tetrahydro-2H-pyran-3,4,5-triol]: half-maximal inhibition (IC50) required 71.3 nM.

`CC(Cc1nnc(Cc2cc(C3O[C@H](CO)[C@@H](O)[C@H](O)[C@H]3O)ccc2Cl)s1)c1ccccc1` (stereo partly drawn) [Example 26, (3R,4R,5S,6R)-2-(4-Chloro-3-((5-(2-phenylpropyl)-1,3,4-thiadiazol-2-yl)methyl)phenyl)-6-(hydroxymethyl)-tetrahydro-2H-pyran-3,4,5-triol] displayed an IC50 of 548 nM.

Regarding `OC[C@H]1O[C@@H](c2ccc(Cl)c(Cc3nnc(-c4ccc(-c5ccccc5)o4)s3)c2)[C@H](O)[C@@H](O)[C@@H]1O` [Example 37, (2S,3R,4R,5S,6R)-2-(4-Chloro-3-((5-(5-phenylfuran-2-yl)-1,3,4-thiadiazol-2-yl)methyl)phenyl)-6-(hydroxymethyl)-tetrahydro-2H-pyran-3,4,5-triol], the IC50 was found to be 10.6 nM.

In the case of `CSc1nnc(Cc2cc([C@@H]3O[C@H](CO)[C@@H](O)[C@H](O)[C@H]3O)ccc2Cl)s1` [Example 40, (2S,3R,4R,5S,6R)-2-(4-Chloro-3-((5-(methylthio)-1,3,4-thiadiazol-2-yl)methyl)phenyl)-6-(hydroxymethyl)-tetrahydro-2H-pyran-3,4,5-triol], the IC50 was 10.9 nM.
